Reference: ChEMBL document CHEMBL1909046, “DrugMatrix in vitro pharmacology data”
pIC50, pKi: −log10 of the molar value.

Columns and labels:
Estrogen receptor beta = Estrogen receptor beta (Homo sapiens, UniProt Q92731); conditions: sf9; note: in other assays of this panel Not Active means under 50% inhibition at 10 µM
[1] = DRUGMATRIX: Leukotriene, BLT (LTB4) radioligand binding (ligand: [3H]LTB4); assay type: cell membranes, Membrane; conditions: u-937, Not Active = under 50% inhibition at 10 µM
Substance-K receptor = target: T1, Substance-K receptor (Homo sapiens, UniProt P21452); assay type: cell membranes, CHO, Membrane; conditions: cho; note: in other assays of this panel Not Active means under 50% inhibition at 10 µM
T1 sequence (P21452 whole entry): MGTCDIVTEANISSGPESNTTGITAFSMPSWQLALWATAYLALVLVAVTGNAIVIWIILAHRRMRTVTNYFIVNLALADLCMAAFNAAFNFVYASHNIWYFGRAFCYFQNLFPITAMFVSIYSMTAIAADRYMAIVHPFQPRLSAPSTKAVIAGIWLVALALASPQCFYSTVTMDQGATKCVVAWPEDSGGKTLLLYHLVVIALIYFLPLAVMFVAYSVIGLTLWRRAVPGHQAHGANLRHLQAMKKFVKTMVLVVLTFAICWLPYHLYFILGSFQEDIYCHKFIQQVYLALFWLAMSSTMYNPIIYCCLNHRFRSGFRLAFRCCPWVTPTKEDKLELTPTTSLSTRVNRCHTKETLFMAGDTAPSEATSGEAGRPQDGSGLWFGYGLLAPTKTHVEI

[2] = target: T2, Type-2 angiotensin II receptor (Homo sapiens, UniProt P50052); assay type: cell-based; conditions: cho-k1; note: in other assays of this panel Not Active means under 50% inhibition at 10 µM
T2 sequence (P50052 whole entry): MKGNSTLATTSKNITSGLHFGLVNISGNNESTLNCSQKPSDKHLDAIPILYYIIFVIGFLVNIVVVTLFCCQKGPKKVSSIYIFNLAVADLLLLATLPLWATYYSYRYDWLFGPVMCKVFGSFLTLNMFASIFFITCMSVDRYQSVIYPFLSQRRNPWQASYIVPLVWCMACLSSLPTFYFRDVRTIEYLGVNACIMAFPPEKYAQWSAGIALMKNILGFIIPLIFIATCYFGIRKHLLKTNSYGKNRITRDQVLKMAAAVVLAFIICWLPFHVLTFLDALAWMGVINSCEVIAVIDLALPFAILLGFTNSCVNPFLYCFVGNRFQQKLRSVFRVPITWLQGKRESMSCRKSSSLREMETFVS

[3] = target: Platelet-activating factor receptor (Homo sapiens, UniProt P25105); assay type: tissue-based; note: in other assays of this panel Not Active means under 50% inhibition at 10 µM
Platelet-activating factor receptor, sequence (P25105 whole entry): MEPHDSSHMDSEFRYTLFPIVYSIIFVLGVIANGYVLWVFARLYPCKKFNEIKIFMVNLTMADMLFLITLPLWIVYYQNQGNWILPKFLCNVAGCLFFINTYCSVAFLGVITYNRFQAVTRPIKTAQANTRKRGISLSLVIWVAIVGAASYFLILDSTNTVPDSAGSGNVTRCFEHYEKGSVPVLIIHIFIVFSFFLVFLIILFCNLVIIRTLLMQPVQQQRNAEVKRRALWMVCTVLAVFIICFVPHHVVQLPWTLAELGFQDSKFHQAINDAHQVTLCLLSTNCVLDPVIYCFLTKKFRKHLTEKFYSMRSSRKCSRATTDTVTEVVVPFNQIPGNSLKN

[4] = target: Sodium-dependent noradrenaline transporter (Homo sapiens, UniProt P23975); test: DRUGMATRIX: Norepinephrine Transporter radioligand binding (ligand: [125I] RTI-55); assay type: cell membranes, MDCK, Membrane; conditions: mdck; Not Active = under 50% inhibition at 10 µM
Sodium-dependent noradrenaline transporter, sequence (P23975 whole entry): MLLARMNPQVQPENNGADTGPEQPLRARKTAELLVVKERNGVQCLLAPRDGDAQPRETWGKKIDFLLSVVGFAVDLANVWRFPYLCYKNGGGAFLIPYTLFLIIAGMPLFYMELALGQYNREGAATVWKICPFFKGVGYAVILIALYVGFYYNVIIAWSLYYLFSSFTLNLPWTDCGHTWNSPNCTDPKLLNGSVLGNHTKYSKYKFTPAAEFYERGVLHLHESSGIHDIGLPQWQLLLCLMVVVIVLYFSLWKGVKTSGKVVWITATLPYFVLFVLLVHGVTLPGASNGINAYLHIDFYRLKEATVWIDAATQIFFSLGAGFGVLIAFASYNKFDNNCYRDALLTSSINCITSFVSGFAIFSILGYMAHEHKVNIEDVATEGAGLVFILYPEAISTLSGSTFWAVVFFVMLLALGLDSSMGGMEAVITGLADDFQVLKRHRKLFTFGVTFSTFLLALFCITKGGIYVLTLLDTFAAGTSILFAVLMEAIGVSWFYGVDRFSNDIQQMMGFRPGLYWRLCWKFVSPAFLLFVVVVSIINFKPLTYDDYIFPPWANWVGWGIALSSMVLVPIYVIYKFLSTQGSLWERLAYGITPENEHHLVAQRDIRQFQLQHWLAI

[5] = DRUGMATRIX: Serotonin (5-Hydroxytryptamine) 5-HT3 radioligand binding (ligand: [3H] GR-65630); assay type: cell membranes, Membrane; conditions: hek293; Not Active = under 50% inhibition at 10 µM

Estrogen receptor beta, sequence (Q92731 whole entry): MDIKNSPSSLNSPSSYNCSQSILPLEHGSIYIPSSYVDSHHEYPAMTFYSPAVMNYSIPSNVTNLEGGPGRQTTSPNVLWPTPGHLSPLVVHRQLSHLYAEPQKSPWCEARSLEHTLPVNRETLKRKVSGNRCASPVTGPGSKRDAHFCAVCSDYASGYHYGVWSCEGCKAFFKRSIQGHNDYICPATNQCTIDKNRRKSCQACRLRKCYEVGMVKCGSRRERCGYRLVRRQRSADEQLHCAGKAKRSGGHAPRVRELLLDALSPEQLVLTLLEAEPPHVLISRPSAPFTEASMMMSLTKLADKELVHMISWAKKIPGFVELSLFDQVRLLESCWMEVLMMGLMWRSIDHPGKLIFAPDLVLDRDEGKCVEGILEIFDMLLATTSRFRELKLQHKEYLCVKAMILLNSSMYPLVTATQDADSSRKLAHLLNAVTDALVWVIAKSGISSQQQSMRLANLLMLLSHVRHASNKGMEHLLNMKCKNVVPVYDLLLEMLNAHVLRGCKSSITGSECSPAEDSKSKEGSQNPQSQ

Molecule	IC50 (Estrogen receptor beta)	IC50 [1]	Ki [1]	IC50 (Substance-K receptor)	IC50 [2]	IC50 [3]	IC50 [4]	IC50 [5]	Ki [5]	Ki (Estrogen receptor beta)	Ki (Substance-K receptor)	Ki [2]	Ki [3]	Ki [4]	pIC50 ([1]; read-out: IC50)	pKi ([1]; read-out: Ki)
CO[C@H]1O[C@@H]2O[C@@]3(C)CC[C@H]4[C@H](C)CC[C@@H]([C@H]1C)[C@@]24OO3	Not Active	Not Active	Not Active	Not Active	Not Active	Not Active	Not Active	Not Active	Not Active							
O=c1[nH]c2ccccc2c2ccccc12	Not Active	Not Active	Not Active	Not Active	Not Active	Not Active	Not Active	Not Active	Not Active							
COc1ccc(C[C@H](N)C(=O)N[C@H]2[C@@H](O)[C@H](n3cnc4c(N(C)C)ncnc43)O[C@@H]2CO)cc1 [PUROMYCIN]	Not Active	Not Active	Not Active	Not Active	Not Active	Not Active	Not Active	Not Active	Not Active							
CHROMIC CHLORIDE	Not Active	Not Active	Not Active	Not Active	Not Active	Not Active	Not Active	Not Active	Not Active	Not Active	Not Active	Not Active	Not Active	Not Active		
C[C@@H]1[C@H](O)[C@@H](C)/C=C/C=C/C=C/C=C/C=C/C=C/C=C/[C@H](O[C@@H]2O[C@H](C)[C@@H](O)[C@H](N)[C@@H]2O)C[C@@H]2O[C@](O)(C[C@@H](O)C[C@@H](O)[C@H](O)CC[C@@H](O)C[C@@H](O)CC(=O)O[C@H]1C)C[C@H](O)[C@H]2C(=O)O [AMPHOTERICIN B]	Not Active	Not Active	Not Active	Not Active	Not Active	Not Active	Not Active	Not Active	Not Active							
Cc1c(N)nc([C@H](CC(N)=O)NC[C@H](N)C(N)=O)nc1C(=O)N[C@H](C(=O)N[C@H](C)[C@@H](O)[C@H](C)C(=O)N[C@H](C(=O)NCCc1nc(-c2nc(C(=O)NCCC[S+](C)C)cs2)cs1)[C@@H](C)O)[C@@H](O[C@@H]1O[C@@H](CO)[C@@H](O)[C@H](O)[C@@H]1O[C@H]1O[C@H](CO)[C@@H](O)[C@H](OC(N)=O)[C@@H]1O)c1c[nH]cn1.[Br-] [BLEOMYCIN A2]		Not Active	Not Active	Not Active	Not Active	Not Active	Not Active	Not Active	Not Active							
Oc1ccccc1 [PHENOL]		Not Active	Not Active	Not Active	Not Active	Not Active	Not Active	Not Active	Not Active							
CC(C)NCC(O)COc1ccc(CC(N)=O)cc1 (stereo unspecified) [ATENOLOL]		Not Active	Not Active	Not Active	Not Active	Not Active	Not Active	Not Active	Not Active							
CNC[C@H](O)c1ccc(O)c(O)c1 [EPINEPHRINE]		Not Active	Not Active	Not Active	Not Active	Not Active	Not Active									
Nc1ccc(Cc2ccc(N)cc2)cc1		Not Active	Not Active	Not Active	Not Active	Not Active	Not Active	Not Active	Not Active							
c1ccc2sc(SSc3nc4ccccc4s3)nc2c1 [BENZOTHIAZYL DISULFIDE]				Not Active	Not Active	Not Active	Not Active	Not Active	Not Active						5.29	5.89
O=C1c2ccccc2C(=O)C1c1ccccc1 [PHENINDIONE]		Not Active	Not Active	Not Active	Not Active	Not Active	Not Active	Not Active	Not Active							
Nc1ccc(C(=O)O)c(O)c1 [AMINOSALICYLIC ACID]		Not Active	Not Active	Not Active	Not Active	Not Active	Not Active	Not Active	Not Active							
C[N+](C)(C)CCOC(N)=O.[Cl-] [CARBACHOL]		Not Active	Not Active	Not Active	Not Active	Not Active	Not Active	Not Active	Not Active							
CC12CCC(CC1)C(C)(C)O2 [EUCALYPTOL]		Not Active	Not Active	Not Active	Not Active	Not Active	Not Active	Not Active	Not Active							
NS(=O)(=O)c1cc(C(=O)O)c(NCc2ccco2)cc1Cl [FUROSEMIDE]		Not Active	Not Active	Not Active	Not Active	Not Active	Not Active	Not Active	Not Active							
NC(N)=Nc1nc(CSCCC(N)=NS(N)(=O)=O)cs1 [FAMOTIDINE]		Not Active	Not Active	Not Active	Not Active	Not Active	Not Active	Not Active	Not Active							
ClC1=C(Cl)[C@]2(Cl)[C@@H]3[C@@H]4C[C@@H]([C@H]5O[C@@H]45)[C@@H]3[C@@]1(Cl)C2(Cl)Cl [DIELDRIN]		Not Active	Not Active	Not Active	Not Active	Not Active	Not Active	Not Active	Not Active							
CC(=O)[C@]1(O)Cc2c(O)c3c(c(O)c2[C@@H](O[C@H]2C[C@H](N)[C@H](O)[C@H](C)O2)C1)C(=O)c1ccccc1C3=O [IDARUBICIN]		Not Active	Not Active	Not Active	Not Active	Not Active	Not Active	Not Active	Not Active							
COC(=O)Nc1nc2ccc(Sc3ccccc3)cc2[nH]1 [FENBENDAZOLE]		Not Active	Not Active	Not Active	Not Active	Not Active	Not Active	Not Active	Not Active							
OC[C@H]1O[C@@H]2O[C@H]3[C@H](O)[C@@H](O)[C@@H](O[C@H]4[C@H](O)[C@@H](O)[C@@H](O[C@H]5[C@H](O)[C@@H](O)[C@@H](O[C@H]6[C@H](O)[C@@H](O)[C@@H](O[C@H]7[C@H](O)[C@@H](O)[C@@H](O[C@H]8[C@H](O)[C@@H](O)[C@@H](O[C@H]1[C@H](O)[C@H]2O)O[C@@H]8CO)O[C@@H]7CO)O[C@@H]6CO)O[C@@H]5CO)O[C@@H]4CO)O[C@@H]3CO [BETADEX]		Not Active	Not Active	Not Active	Not Active	Not Active	Not Active	Not Active	Not Active							
O=C(O)c1ccccc1 [BENZOIC ACID]		Not Active	Not Active	Not Active	Not Active	Not Active	Not Active	Not Active	Not Active							
C=CCO [ALLYL ALCOHOL]		Not Active	Not Active	Not Active	Not Active	Not Active	Not Active	Not Active	Not Active							
O=c1[nH]cnc2c1ncn2[C@H]1CC[C@@H](CO)O1 [DIDANOSINE]		Not Active	Not Active	Not Active	Not Active	Not Active	Not Active	Not Active	Not Active							
C[C@H]1C[C@H]2[C@@H]3CCC4=CC(=O)C=C[C@]4(C)[C@@]3(F)[C@@H](O)C[C@]2(C)[C@@]1(O)C(=O)CO [BETAMETHASONE]		Not Active	Not Active	Not Active	Not Active	Not Active	Not Active	Not Active	Not Active							
C=C(Cl)Cl [1,1-DICHLOROETHENE]		Not Active	Not Active	Not Active	Not Active	Not Active	Not Active	Not Active	Not Active							
